The text below walks through data of US9056875B2, “Substituted pyrazolo[3′,4′:4,5]thieno[2,3-C]pyridazin-3-amine analogs as positive allosteric modulators of the muscarinic acetylcholine receptor M4” (Vanderbilt University, priority 2012, dated 2015).

Like-named read-outs stand apart in the source and are kept apart here.

The experiment addresses T1, mAChR rM4 (Rattus norvegicus, UniProt P08485).
T1 construct: expressed in transfected cells
T1 sequence (P08485 1-478): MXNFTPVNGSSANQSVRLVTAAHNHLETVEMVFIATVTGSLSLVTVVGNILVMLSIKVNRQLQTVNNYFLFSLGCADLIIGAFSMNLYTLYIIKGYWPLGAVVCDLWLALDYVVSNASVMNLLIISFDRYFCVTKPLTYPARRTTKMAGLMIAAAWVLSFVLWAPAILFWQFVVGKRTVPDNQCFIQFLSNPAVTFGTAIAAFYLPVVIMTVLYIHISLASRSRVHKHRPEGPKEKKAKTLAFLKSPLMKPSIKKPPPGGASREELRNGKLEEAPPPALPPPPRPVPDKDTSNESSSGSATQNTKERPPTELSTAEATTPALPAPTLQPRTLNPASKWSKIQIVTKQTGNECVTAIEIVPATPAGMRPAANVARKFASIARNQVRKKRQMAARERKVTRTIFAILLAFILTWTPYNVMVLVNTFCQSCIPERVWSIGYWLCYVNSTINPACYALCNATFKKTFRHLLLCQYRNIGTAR
The experiment in a line: mAChR rM4 cell-based functional assay (calcium mobilization, potentiation of EC20 acetylcholine response). The note with it: for Emax at 30 µM: %ACh maximum at 30 μM; for EC50: rM4-transfected CHO-K1 cells, positive allosteric modulation of EC20 ACh response. From the text:
Chinese hamster ovary (CHO-K1) cells stably expressing rat (r)M1 were purchased from the American Type Culture Collection and cultured according to their indicated protocol. CHO cells stably expressing human (h)M2, hM3, and hM5 were described previously (Levey A I, et al., (1991) J Neurosci 11:3218-3226.); hM1 and hM4 cDNAs were purchased from Missouri S&T cDNA Resource; rM4 cDNA was provided by T. I. Bonner (National Institutes of Health, Bethesda, Md.). rM2 and rM3 were cloned from a rat brain cDNA library and sequence verified. hM1, rM2, rM3, hM4, and rM4 cDNAs were used to stably transfect CHO-K1 cells purchased from the American Type Culture Collection using Lipofectamine® 2000. To make stable rM2, hM2, rM3, hM4, and rM4 cell lines for use in calcium mobilization assays, these cells also were stably transfected with a chimeric G-protein (Gqi5) (provided by B. R. Conklin, University of California, San Francisco) using Lipofectamine® 2000. rM1, hM1, rM3, hM3, rM5, and hM5 cells were grown in Ham's F-12 medium containing 10% heat-inactivated fetal bovine serum (FBS), 20 mM HEPES, and 50 μg/mL G418 sulfate. rM2-Gqi5, hM2-Gqi5, and hM4-Gqi5 cells were grown in the same medium also containing 500 μg/mL hygromycin B. Stable rM4-Gqi5 cells were grown in DMEM containing 10% heat-inactivated FBS, 20 mM HEPES, 400 μg/mL G418 sulfate, and 500 μg/mL Hygromycin B.
For high throughput measurement of agonist-evoked increases in intracellular calcium, CHO-K1 cells stably expressing the target muscarinic receptor were plated in growth medium lacking G418 and hygromycin at 15,000 cells/20 μL/well in Greiner 384-well black-walled, tissue culture (TC)-treated, clear-bottom plates (VWR). Cells were incubated overnight at 37° C. and 5% CO2. The next day, cells were washed using an ELX 405 (BioTek) with four washes (80 μL) of assay buffer then aspirated to 20 μL. Next, 20 μL of 16 μM Fluo-4/acetoxymethyl ester (Invitrogen, Carlsbad, Calif.) prepared as a 2.3 mM stock in DMSO and mixed in a 1:1 ratio with 10% (w/v) Pluronic F-127 and diluted in assay buffer was added to the wells and the cell plates were incubated for […] at 37° C. and 5% CO2. Dye was removed by washing with the ELX 405 (four 80 μL washes of assay buffer) then aspirated to 20 μL. Compound master plates were formatted in an 11 point CRC format (1:3 dilutions) in 100% DMSO with a starting concentration of 10 mM using the BRAVO liquid handler (Agilent). Test compound CRCs were then transferred to daughter plates (240 nL) using the Echo acoustic plate reformatter (Labcyte, Sunnyvale, Calif.) and then diluted into assay buffer (40 μL) to a 2× stock using a Thermo Fisher Combi (Thermo Fisher Scientific, Waltham, Mass.).
Calcium flux was measured using the Functional Drug Screening System (FDSS) 6000 (Hamamatsu Corporation, Tokyo, Japan) as an increase in the fluorescent static ratio. Compounds were applied to cells (20 μL, 2×) using the automated system of the FDSS 6000 at 4 s into the 300 s protocol and the data were collected at 1 Hz. At 144 s into the 300 s protocol, 10 μL of an EC20 concentration of the muscarinic receptor agonist acetylcholine was added (5×), followed by the addition of 12 μL an EC80 concentration of acetylcholine at the 230 s time point (5×). Agonist activity was analyzed as a concentration-dependent increase in calcium mobilization upon compound addition. Positive allosteric modulator activity was analyzed as a concentration-dependent increase in the EC20 acetylcholine response. Antagonist activity was analyzed as a concentration-dependent decrease in the EC80 acetylcholine response. Concentration-response curves were generated using a four-parameter logistical equation in XLfit™ curve fitting software (IDBS, Bridgewater, N.J.) for Excel (Microsoft, Redmond, Wash.) or Prism (GraphPad Software, Inc., San Diego, Calif.). […]

On to `Cc1nnc2sc3c(NC4CN(C(=O)OC(C)(C)C)C4)nn(C)c3c2c1C` [Compound 9, tert-butyl 3-((1,7,8-trimethyl-1H-pyrazolo[3′,4′:4,5]thieno[2,3-c]pyridazin-3-yl)amino)azetidine-1-carboxylate], for which the Emax at 30 µM is 58%. The EC50 (read-out: pEC50 (converted)) was 25.1 nM.

With `Cc1nnc2sc3c(NC4CCN(S(C)(=O)=O)CC4)nn(C)c3c2c1C` [Compound 19, 1,7,8-trimethyl-N-(1-(methylsulfonyl)piperidin-4-yl)-1H-pyrazolo[3′,4′:4,5]thieno[2,3-c]pyridazin-3-amine], the Emax at 30 µM worked out at 58%. The EC50 (read-out: EC50) is 1100 nM.

On to `Cc1nnc2sc3c(NC4CCN(C(=O)OC(C)(C)C)CC4)nn(C)c3c2c1C` [Compound 17, tert-butyl 4-((1,7,8-trimethyl-1H-pyrazolo[3′,4′:4,5]thieno[2,3-c]pyridazin-3-yl)amino)piperidine-1-carboxylate], for which the maximal effect (Emax) at 30 µM amounted to 47%. The EC50 (read-out: EC50) stood at 210 nM.

Take `Cc1nnc2sc3c(NC4CNC4)nn(C)c3c2c1C` [Compound 16, N-(azetidin-3-yl)-1,7,8-trimethyl-1H-pyrazolo[3′,4′:4,5]thieno[2,3-c]pyridazin-3-amine]: the Emax at 30 µM was 51%. Moreover, the EC50 (read-out: EC50) amounted to 1400 nM.

On to `CC(=O)N1CCC(CNc2nn(C)c3c2sc2nnc(C)c(C)c23)CC1` [Compound 23, 1-(4-(((1,7,8-trimethyl-1H-pyrazolo[3′,4′:4,5]thieno[2,3-c]pyridazin-3-yl)amino)methyl)piperidin-1-yl)ethanone], for which the maximum response (Emax) at 30 µM is 44%. Also, the EC50 (read-out: EC50) was determined as 1800 nM.

For the molecule `Cc1nnc2sc3c(NCc4ccco4)nn(C)c3c2c1C` [Compound 4, N-(furan-2-ylmethyl)-1,7,8-trimethyl-1H-pyrazolo[3′,4′:4,5]thieno[2,3-c]pyridazin-3-amine], the Emax at 30 µM came to 50%. Also, the EC50 (read-out: EC50) stood at 180 nM.

For `Cc1nnc2sc3c(NC4CCOC4)nn(C)c3c2c1C` (centres unmarked) [Compound 8, 1,7,8-trimethyl-N-(tetrahydrofuran-3-yl)-1H-pyrazolo[3′,4′:4,5]thieno[2,3-c]pyridazin-3-amine], the Emax at 30 µM worked out at 55%. Besides, for the setting “read-out: EC50”, the EC50 came out at 400 nM.

As to `Cc1nnc2sc3c(NCc4ccc(F)c(S(C)(=O)=O)c4)nn(C)c3c2c1C` [Compound 5, N-(4-fluoro-3-(methylsulfonyl)benzyl)-1,7,8-trimethyl-1H-pyrazolo[3′,4′:4,5]thieno[2,3-c]pyridazin-3-amine], the Emax at 30 µM is 54%. Besides, the EC50 (read-out: pEC50 (converted)) is 14.1 nM.

On to `Cc1nnc2sc3c(NCc4ccc(S(C)(=O)=O)cc4)nn(C)c3c2c1C` [Compound 2, 1,7,8-trimethyl-N-(4-(methylsulfonyl)benzyl)-1H-pyrazolo[3′,4′:4,5]thieno[2,3-c]pyridazin-3-amine], for which the maximum response (Emax) at 30 µM came out at 57%. The EC50 (read-out: EC50) was 130 nM.

For `Cc1nnc2sc3c(NCc4ccoc4)nn(C)c3c2c1C` [Compound 7, N-(furan-3-ylmethyl)-1,7,8-trimethyl-1H-pyrazolo[3′,4′:4,5]thieno[2,3-c]pyridazin-3-amine], the Emax at 30 µM was 60%. Further, the EC50 (read-out: pEC50 (converted)) is 38.9 nM.

Consider `Cc1nnc2sc3c(NCc4cccs4)nn(C)c3c2c1C` [Compound 10, 1,7,8-trimethyl-N-(thiophen-2-ylmethyl)-1H-pyrazolo[3′,4′:4,5]thieno[2,3-c]pyridazin-3-amine], for which the Emax at 30 µM amounted to 53%. Further, under “read-out: pEC50 (converted)”, the EC50 is 30.9 nM.

Consider `COc1ccc(CNc2nn(C)c3c2sc2nnc(C)c(C)c23)cc1` [Compound 1, N-(4-methoxybenzyl)-1,7,8-trimethyl-1H-pyrazolo[3′,4′:4,5]thieno[2,3-c]pyridazin-3-amine], for which the Emax at 30 µM turned out to be 55%. Further, the EC50 (read-out: EC50) is 48 nM.

As for `CC(=O)N1CC(Nc2nn(C)c3c2sc2nnc(C)c(C)c23)C1` [Compound 14, 1-(3-((1,7,8-trimethyl-1H-pyrazolo[3′,4′:4,5]thieno[2,3-c]pyridazin-3-yl)amino)azetidin-1-yl)ethanone], the maximal effect (Emax) at 30 µM turned out to be 69%. Besides, the EC50 (read-out: EC50) came out at 170 nM.

For `Cc1ncsc1CNc1nn(C)c2c1sc1nnc(C)c(C)c12` [Compound 11, 1,7,8-trimethyl-N-((4-methylthiazol-5-yl)methyl)-1H-pyrazolo[3′,4′:4,5]thieno[2,3-c]pyridazin-3-amine], the Emax at 30 µM turned out to be 56%. Further, the EC50 (read-out: EC50) turned out to be 55 nM.

Consider `Cc1nnc2sc3c(NCC4CCNCC4)nn(C)c3c2c1C` [Compound 22, 1,7,8-trimethyl-N-(piperidin-4-ylmethyl)-1H-pyrazolo[3′,4′:4,5]thieno[2,3-c]pyridazin-3-amine], for which the EC50 (read-out: EC50) is more than 10000 nM.

On to `Cc1nnc2sc3c(NC4CCSC4)nn(C)c3c2c1C` (centres unmarked) [Compound 6, 1,7,8-trimethyl-N-(tetrahydrothiophen-3-yl)-1H-pyrazolo[3′,4′:4,5]thieno[2,3-c]pyridazin-3-amine], for which the maximum response (Emax) at 30 µM was determined as 56%. Also, the EC50 (read-out: EC50) came to 97 nM.

For the molecule `CC(=O)N1CCC(Nc2nn(C)c3c2sc2nnc(C)c(C)c23)CC1` [Compound 20, 1-(4-((1,7,8-trimethyl-1H-pyrazolo[3′,4′:4,5]thieno[2,3-c]pyridazin-3-yl)amino)piperidin-1-yl)ethanone], the Emax at 30 µM is 51%. Besides, the EC50 (read-out: EC50) came out at 1800 nM.

As for `Cc1cc(CNc2nn(C)c3c2sc2nnc(C)c(C)c23)no1` [Compound 12, 1,7,8-trimethyl-N-((5-methylisoxazol-3-yl)methyl)-1H-pyrazolo[3′,4′:4,5]thieno[2,3-c]pyridazin-3-amine], the Emax at 30 µM stood at 55%. For the same molecule, the EC50 (read-out: EC50) turned out to be 500 nM.

As to `Cc1nnc2sc3c(NC4CN(S(C)(=O)=O)C4)nn(C)c3c2c1C` [Compound 15, 1,7,8-trimethyl-N-(1-(methylsulfonyl)azetidin-3-yl)-1H-pyrazolo[3′,4′:4,5]thieno[2,3-c]pyridazin-3-amine], the Emax at 30 µM was found to be 64%. Besides, the EC50 (read-out: EC50) was 63 nM.

On to `Cc1nnc2sc3c(NCC4CC4)nn(C)c3c2c1C` [Compound 3, N-(cyclopropylmethyl)-1,7,8-trimethyl-1H-pyrazolo[3′,4′:4,5]thieno[2,3-c]pyridazin-3-amine], for which the maximal effect (Emax) at 30 µM was 46%. The EC50 (read-out: EC50) was 340 nM.

With `Cc1nnc2sc3c(NCC4CCN(S(C)(=O)=O)CC4)nn(C)c3c2c1C` [Compound 24, 1,7,8-trimethyl-N-((1-(methylsulfonyl)piperidin-4-yl)methyl)-1H-pyrazolo[3′,4′:4,5]thieno[2,3-c]pyridazin-3-amine], the maximal response (Emax) at 30 µM amounted to 61%. Further, the EC50 (read-out: EC50) worked out at 2500 nM.

Usually Emax stands for the greatest response seen or fitted, relative to the assay's reference.
